# Measured values from PMC10794144, “A novel antibiotic class targeting the lipopolysaccharide transporter” (Nature, 2024).
# System: A. baumannii MDR isolates
# Assay: Single-step spontaneous mutation frequency
# Assay type: cell-based, Acinetobacter baumannii
# Protocol: Molten Mueller–Hinton agar (19 ml) supplemented with 20% human serum was added to 1 ml of compound at 20× the final concentration, poured immediately into Petri dishes (100 mm diameter) and gently mixed. Then, 2–3 colonies from agar plates were inoculated into CAMHB and incubated overnight under shaking (150 rpm). […] The agar plates were incubated aerobically at 35 ± 2 °C.
compound,measurement,setting,value
CN1C(=O)[C@H](CCCCN)NC(=O)[C@H](CCCN)NCc2cccnc2Sc2cccc(-c3ccc(C(=O)O)cc3)c2CNC(=O)[C@@H]1Cc1c[nH]c2ccccc12 [zosurabalpin],PROPORTION_R,"A. baumannii ACC00445, inoculum 3.30E+08, selection 2xMIC, 0.5 ug/ml",1.70E-07
same,PROPORTION_R,"A. baumannii ACC00445, inoculum 3.30E+08, selection 4xMIC, 1 ug/ml",6.50E-08
same,PROPORTION_R,"A. baumannii ACC00445, inoculum 3.30E+08, selection 8xMIC, 2 ug/ml",3.10E-09
same,PROPORTION_R,"A. baumannii ACC00445, inoculum 3.30E+08, selection 16xMIC, 4 ug/ml",<3.1E-09
same,PROPORTION_R,"A. baumannii ACC00535, inoculum 3.50E+08, selection 4xMIC, 0.5 ug/ml",1.50E-07
same,PROPORTION_R,"A. baumannii ACC00535, inoculum 3.50E+08, selection 8xMIC, 1 ug/ml",8.90E-08
same,PROPORTION_R,"A. baumannii ACC00535, inoculum 3.50E+08, selection 16xMIC, 2 ug/ml",<2.9E-09
same,PROPORTION_R,"A. baumannii ACC01073, inoculum 2.80E+08, selection 2xMIC, 2 ug/ml",1.10E-08
same,PROPORTION_R,"A. baumannii ACC01073, inoculum 2.80E+08, selection 4xMIC, 4 ug/ml",7.30E-09
same,PROPORTION_R,"A. baumannii ACC01073, inoculum 2.80E+08, selection 8xMIC, 8 ug/ml",<3.6E-09
same,PROPORTION_R,"A. baumannii ACC01073, inoculum 2.80E+08, selection 16xMIC, 16 ug/ml",<3.6E-09
same,PROPORTION_R,"A. baumannii ACC01077, inoculum 2.80E+08, selection 2xMIC, 0.5 ug/ml",3.60E-09
same,PROPORTION_R,"A. baumannii ACC01077, inoculum 2.80E+08, selection 4xMIC, 1 ug/ml",<3.6E-09
same,PROPORTION_R,"A. baumannii ACC01077, inoculum 2.80E+08, selection 8xMIC, 2 ug/ml",<3.6E-09
same,PROPORTION_R,"A. baumannii ACC01077, inoculum 2.80E+08, selection 16xMIC, 4 ug/ml",<3.6E-09
same,PROPORTION_R,"A. baumannii ACC01085_CDC AR307, inoculum 5.50E+08, selection 2xMIC, 0.5 ug/ml",1.10E-06
same,PROPORTION_R,"A. baumannii ACC01085_CDC AR307, inoculum 5.50E+08, selection 4xMIC, 1 ug/ml",<1.8E-09
same,PROPORTION_R,"A. baumannii ATCC BAA-747, inoculum 7.50E+07, selection 8xMIC, 0.5 ug/ml",<1.3E-08
same,PROPORTION_R,"A. baumannii ATCC BAA-747, inoculum 7.50E+07, selection 16xMIC, 1 ug/ml",<1.3E-08
same,PROPORTION_R,"A. baumannii ROB08706, inoculum 5.00E+07, selection 2xMIC, 2 ug/ml",4.00E-08
same,PROPORTION_R,"A. baumannii ROB08706, inoculum 5.00E+07, selection 4xMIC, 4 ug/ml",6.00E-08
same,PROPORTION_R,"A. baumannii ROB08706, inoculum 5.00E+07, selection 8xMIC, 8 ug/ml",<2.0E-08
same,PROPORTION_R,"A. baumannii ROB08706, inoculum 5.00E+07, selection 16xMIC, 16 ug/ml",<2.0E-08
same,PROPORTION_R,"A. baumannii ROB08708, inoculum 2.40E+08, selection 4xMIC, 0.5 ug/ml",1.10E-07
same,PROPORTION_R,"A. baumannii ROB08708, inoculum 2.40E+08, selection 8xMIC, 1 ug/ml",<4.2E-09
same,PROPORTION_R,"A. baumannii ROB08708, inoculum 2.40E+08, selection 16xMIC, 2 ug/ml",<4.2E-09
same,Single-step spontaneous mutation frequency,"ACC00445, 2× MIC",2 × 10^−7
same,Single-step spontaneous mutation frequency,"ACC00445, 4× MIC",7 × 10^−8
same,Single-step spontaneous mutation frequency,"ACC00445, 8× MIC",3 × 10^−9
same,Single-step spontaneous mutation frequency,"ACC00445, 16× MIC",<3 × 10^−9
same,Single-step spontaneous mutation frequency,"ACC00535, 2× MIC",2 × 10^−7
same,Single-step spontaneous mutation frequency,"ACC00535, 4× MIC",2 × 10^−7
same,Single-step spontaneous mutation frequency,"ACC00535, 8× MIC",9 × 10^−8
same,Single-step spontaneous mutation frequency,"ACC00535, 16× MIC",<3 × 10^−9
same,Single-step spontaneous mutation frequency,"ACC01073, 2× MIC",1 × 10^−8
same,Single-step spontaneous mutation frequency,"ACC01073, 4× MIC",7 × 10^−9
same,Single-step spontaneous mutation frequency,"ACC01073, 8× MIC",<4 × 10^−9
same,Single-step spontaneous mutation frequency,"ACC01073, 16× MIC",<4 × 10^−9
same,Single-step spontaneous mutation frequency,"ACC01077, 2× MIC",4 × 10^−9
same,Single-step spontaneous mutation frequency,"ACC01077, 4× MIC",<4 × 10^−9
same,Single-step spontaneous mutation frequency,"ACC01077, 8× MIC",<4 × 10^−9
same,Single-step spontaneous mutation frequency,"ACC01077, 16× MIC",<4 × 10^−9
same,Single-step spontaneous mutation frequency,"ACC01085/AR0307, 2× MIC",1 × 10^−6
same,Single-step spontaneous mutation frequency,"ACC01085/AR0307, 4× MIC",<2 × 10^−9
same,Single-step spontaneous mutation frequency,"ATCC BAA-747, 2× MIC",2 × 10^−7
same,Single-step spontaneous mutation frequency,"ATCC BAA-747, 4× MIC",<1 × 10^−8
same,Single-step spontaneous mutation frequency,"ATCC BAA-747, 8× MIC",<1 × 10^−8
same,Single-step spontaneous mutation frequency,"ATCC BAA-747, 16× MIC",<1 × 10^−8
same,Single-step spontaneous mutation frequency,"ROB08706, 2× MIC",4 × 10^−8
same,Single-step spontaneous mutation frequency,"ROB08706, 4× MIC",6 × 10^−8
same,Single-step spontaneous mutation frequency,"ROB08706, 8× MIC",<2 × 10^−8
same,Single-step spontaneous mutation frequency,"ROB08706, 16× MIC",<2 × 10^−8
same,Single-step spontaneous mutation frequency,"ROB08708, 2× MIC",2 × 10^−7
same,Single-step spontaneous mutation frequency,"ROB08708, 4× MIC",1 × 10^−7
same,Single-step spontaneous mutation frequency,"ROB08708, 8× MIC",<4 × 10^−9
same,Single-step spontaneous mutation frequency,"ROB08708, 16× MIC",<4 × 10^−9
